# Measurements reported in US11279708B2, “Amidino- and amino-rocaglates as novel translation inhibitors and anticancer agents” (priority 2019, dated 2022).
# How the values were obtained:
# [1] = system: NIH/3T3 cells; experiment: Sulforhodamine B (SRB) cytotoxicity assay; type: cell-based
# Protocol: In cellula activity of rocaglates. All compounds in the rocaglate collection were assessed for cytotoxic activity towards NIH/3T3 cells as well as the rocaglate-resistant line, eIF4A^em1JP, which harbors an F163L mutation in eIF4A1. This mutation was originally identified following selection for RocA-resistant yeast mutants and F163 was subsequently shown to be critical for stacking with ring C of RocA (2) (FIG. 4). Although eIF4A2 is also a target of rocaglates, eIF4A1 F163L is sufficient to confer resistance to rocaglate-induced translation inhibition and cytotoxicity, likely due to eIF4A1 being the more abundant isoform in NIH/3T3 cells (250-fold higher). […] Lastly, although effective at inhibiting cap-dependent translation in vitro, WGD-57-591 (no activity @ 40 nM) and WGD-57-590 (12% growth inhibition @ 40 nM) performed poorly in this assay.
# Sulforhodamine B (SRB) assay. NIH/3T3 cells were seeded at a density of 1000 cells/well in a 96 well format and incubated in presence of each 40 nM compound. After 4 days of culture, cells were washed with PBS, fixed with 50% trichloroacetic (TCA) acid for 1 hour, and then stained with 0.5% sulforhodamine B in 1% acetic acid for 15 min. Plates were then washed 5 times with 1% acetic acid, dried, and the stained wells were resuspended with 10 mM Tris (pH 9) prior to measuring the absorbance at 510 nm using (Spectramax M5, Molecular Devices)
# FIGS. 26A-26B. In cellula activity of rocaglates. 26A. Cytotoxicity of rocaglates towards NIH/3T3 (grey circle) and the NIH/3T3 rocaglate-resistant line, eIF4A^em1JP(redtriangle). Cells were exposed to 40 nM compound for 4 days and viability was measured using the SRB assay. n=3±SD. 26B. Rocaglates show different sequence preferences for inhibiting cap-dependent translation in cellula. HEK 293 cells were transfected with 0.5 μg of in vitro synthesized capped (AG)10-FF/HCV/Ren or (UC)10-FF/HCV/Ren mRNA and 1h later exposed to the indicated concentrations of compounds for an additional 6 h, at which time extracts were prepared and luciferase activity measured. n=3 SD.
# [2] = molecular target: T1, eIF4A1 (Oryctolagus cuniculus, UniProt P29562); experiment: RNA pulldowns (RPDs) with biotinylated RNA baits in translation extracts; type: binding, Rabbit; details: 500 nM rocaglate, retic lysate
# T1 construct: Rabbit reticulocyte lysates (Promega) were pre-incubated with 500 nM of the indicated compound; tissue Promega; host or cells: rabbit reticulocyte lysate
# Protocol: To determine the ability of rocaglates to recruit eIF4A to RNA in translation extracts, RNA pulldowns (RPDs) using 30 nt polypurine—or polypyrimidine-biotinylated RNA baits were performed. RNA baits were added to in vitro translation extracts in the presence or absence of rocaglate followed by purification using immobilized streptavidin. […] When the RPDs were performed using ApppG-capped RNA with purified eIF4A1 or eIF4F rather than translation extracts, an increase in eIF4A1:polypyrimidine RNA association with silvestrol was not observed (FIG. 25B).
# RNA Pull Down (RPD) Experiments. Rabbit reticulocyte lysates (Promega) were pre-incubated with 500 nM of the indicated compound for 15 minutes at 30° C. prior to the addition of m7GpppG- or ApppG-capped biotinylated RNAs (added to a final concentration of 1 μM biotinylated RNA bait). The reactions were incubated for an additional 15 minutes at 30° C. and then diluted 10× with ice cold wash buffer (0.5% v/v NP-40, 50 mM HEPES (pH 7.3), 150 mM KCl, 2 mM EDTA, 2 mM MgC2,). Magnetic streptavidin beads (NEB) were used to capture the biotinylated RNA baits and the reactions were incubated end over end for 1 hour at 4° C. The beads were then washed three times with ice cold wash buffer (10 minutes per wash) and the RNA bound proteins were eluted by digesting with 50 U of RNaseI (Ambion, AM2294) for 15 minutes at 37° C. Eluted proteins were analyzed by Western blotting.
# FIGS. 25A-25B. […] 25A. RPDs performed with the indicated m^7GpppG- or ApppG-capped RNA species incubated in the presence of retic lysate and either vehicle or 500 nM rocaglate. 25B. RPDs performed with m^7GpppG-capped RNA species incubated in the presence of recombinant eIF4A (125 nM) eIF4F or Krebs-2 extracts and either vehicle or 500 nM silvestrol.
# [3] = molecular target: T2, eIF4A1:poly r(AG)10 (Homo sapiens, UniProt P60842); experiment: FP competition assay, dissociation of eIF4A from (AG)10 RNA; type: binding; details: in the presence of compound
# T2 construct: His6 (N); made in house; host or cells: E. coli BL21 (DE3)
# Protocol: All of these identified compounds retained similar RNA sequence binding preference for eIF4A1 with a bias for polypurine-containing substrates over polypyrimidines (FIG. 17). […] Even in the presence of ATP, which stimulates release of eIF4A from RNA, the half-life of the complexes were much longer than the rates of translation initiation (median <1 min)
# Rocaglates sequester eIF4F onto RNA. RocA (2) induced clamping of eIF4A to 5′ leader regions have been proposed to inhibit translation by blocking scanning of 43S PICs. We therefore sought to test if this mechanism was sufficient to account for the translation inhibition observed with RocA, CR-1-31-B (23), and the newly identified ADRs. We supplemented translation extracts programmed with m^7G-(AG)10-FF/HCV/Ren mRNA with wild-type (wt) or rocaglate-resistant eIF4A1(F163L) recombinant protein. […] Thus, if stabilization of endogenous eIF4A in translation extracts onto mRNA is sufficient to mediate translation inhibition, then the addition of recombinant eIF4A1^F163L should not be able to rescue this inhibition. […]
# FIG. 21. […] FP results of competition assays in which preformed eIF4A1:rocaglate:FAM-poly r(AG)10 complexes were incubated in the presence of poly r(AG)10 (SEQ ID NO: 39) and dissociation measured as a function of time. n=3±SD.
# T1 sequence (P29562 whole entry): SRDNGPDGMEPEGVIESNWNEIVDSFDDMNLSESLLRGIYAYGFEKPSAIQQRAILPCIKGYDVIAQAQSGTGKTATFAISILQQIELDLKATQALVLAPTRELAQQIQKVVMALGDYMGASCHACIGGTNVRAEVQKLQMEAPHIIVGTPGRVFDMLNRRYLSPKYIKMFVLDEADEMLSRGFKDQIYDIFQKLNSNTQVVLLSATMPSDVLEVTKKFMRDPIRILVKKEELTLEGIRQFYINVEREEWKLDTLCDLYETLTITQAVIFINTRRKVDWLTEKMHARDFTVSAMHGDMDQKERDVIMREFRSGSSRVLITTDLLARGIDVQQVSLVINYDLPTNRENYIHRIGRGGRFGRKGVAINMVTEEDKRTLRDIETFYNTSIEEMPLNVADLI
# T2 sequence (P60842 whole entry, species assumed): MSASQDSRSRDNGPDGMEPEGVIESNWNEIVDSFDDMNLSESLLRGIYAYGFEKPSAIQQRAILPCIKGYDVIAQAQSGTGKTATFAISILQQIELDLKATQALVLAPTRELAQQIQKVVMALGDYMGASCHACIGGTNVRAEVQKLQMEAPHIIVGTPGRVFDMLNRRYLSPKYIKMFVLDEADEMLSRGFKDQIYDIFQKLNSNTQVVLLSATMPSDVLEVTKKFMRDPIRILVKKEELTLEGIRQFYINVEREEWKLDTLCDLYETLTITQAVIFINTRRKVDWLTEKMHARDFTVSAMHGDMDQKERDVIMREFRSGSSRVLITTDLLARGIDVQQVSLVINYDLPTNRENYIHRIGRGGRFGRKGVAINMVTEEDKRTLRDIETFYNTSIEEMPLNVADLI
SMILES,"rank among the top 15 cytotoxic rocaglates ([1]; 40 nM, 4 days) [th]","IC50 ([1]; 4 day exposure, read-out: IC50, cytotoxicity towards NIH/3T3 cells) [nM]",recruitment of eIF4A1 to RNA baits (in words) [2],"dissociation of eIF4A from (AG)10, t1/2 [3] [min]"
COC(=O)[C@@H]1[C@@H](c2ccccc2)[C@]2(c3ccc(OC)cc3)Oc3cc(OC)cc(OC)c3[C@@]23N=C(C)N[C@@]13O [9b],10,–,–,–
CONC(=O)[C@H]1[C@@H](O)[C@@]2(O)c3c(OC)cc(OC)cc3O[C@@]2(c2ccc(OC)cc2)[C@@H]1c1ccccc1 [CR-1-31-B],–,~8.5,eIF4A1 was recruited to the purine-rich mRNA template in a cap-independent manner,–
"COc1ccc([C@@]23Oc4cc(OC)cc(OC)c4[C@]2(O)[C@H](O)[C@H](C(=O)N(C)C)[C@H]3c2ccccc2)cc1 [RocA, rocaglamide A]",–,–,eIF4A1 was recruited to the purine-rich mRNA template in a cap-independent manner,27
COC(=O)[C@H]1[C@@H](O)[C@@]2(O)c3c(OC)cc(O[C@@H]4O[C@@H]([C@H](O)CO)CO[C@H]4OC)cc3O[C@@]2(c2ccc(OC)cc2)[C@@H]1c1ccccc1 [silvestrol],–,–,induced eIF4A1 binding to both the polypurine and polypyrimidine baits,–
